Experimental data published in ChEMBL document CHEMBL5042474, “Structure-Guided Discovery of Potent and Selective DYRK1A Inhibitors” (J Med Chem, 2021).

Assays:
A2780 [1] = experiment: Antitumor activity against human A2780 cells xenografted in BALB/c nu/nu mouse assessed as reduction in DYRK1A autophosphorylation of S520 residue at 18.75 mg/kg, po measured after 2 hrs by western blotting analysis relative to control; format: functional; design: scale not given: the % may be the effect or the level left
RS4-11 [2] = experiment: Antitumor activity against human RS4-11 cells xenografted in BALB/c nu/nu mouse reduction in DYRK1A autophosphorylation of S520 residue at 6.25 mg/kg, po measured after 6 hrs by western blotting analysis relative to control; format: functional; design: scale not given: the % may be the effect or the level left
[3] = Toxicity in Balb/c nude mouse xenografted with human A2780 cells assessed as decrease in body weight at 37.5 mg/kg, po bid for 14 days relative to control; format: organism-based; design: scale not given: the % may be the effect or the level left; conditions: in vivo, 336 h, time 14 day
[4] = Toxicity in Balb/c nude mouse xenografted with human A2780 cells assessed as decrease in body weight at 9.5 mg/kg, po bid for 14 days relative to control; format: organism-based; design: scale not given: the % may be the effect or the level left; conditions: in vivo, 336 h, time 14 day
[5] = biological target: Dual specificity tyrosine-phosphorylation-regulated kinase 1B (Homo sapiens) (UniProt Q9Y463); experiment: Residual activity of DYRK1B (unknown origin) at 10 nM using Ulight-MBP as substrate and ATP as co-substrate incubated for 40 mins and measured after 1 hr by TR-FRET assay relative to control; conditions: time 100.0 min
RS4-11 [6] = experiment: Antitumor activity against human RS4-11 cells xenografted in BALB/c nu/nu mouse assessed as reduction in DYRK1A autophosphorylation of S520 residue at 12.5 mg/kg, po measured after 6 hrs by western blotting analysis relative to control; format: functional; design: scale not given: the % may be the effect or the level left
[7] = Toxicity in Balb/c nude mouse xenografted with human A2780 cells assessed as decrease in body weight at 4.75 mg/kg, po bid for 14 days relative to control; format: organism-based; design: scale not given: the % may be the effect or the level left; conditions: in vivo, 336 h, time 14 day
A2780 [8] = experiment: Antitumour activity against human A2780 cells xenografted in Balb/c mouse assessed as tumor volume T/C at 18.75 mg/kg, po bid for 14 days relative to control; conditions: time 14 day
SK-N-MC [9] = experiment: cells; conditions: Homo sapiens, 120 h
RS4-11 [10] = experiment: Antitumor activity against human RS4-11 cells xenografted in BALB/c nu/nu mouse assessed as reduction in DYRK1A autophosphorylation of S520 residue at 3.125 mg/kg, po measured after 6 hrs by western blotting analysis relative to control; format: functional; design: scale not given: the % may be the effect or the level left
A2780 [11] = experiment: Antitumor activity against human A2780 cells xenografted in Balb/c mouse assessed as tumor volume T/C at 4.75 mg/kg, po bid for 14 days relative to control; conditions: time 14 day
[12] = biological target: Casein kinase I isoform gamma-1 (Homo sapiens) (UniProt Q9HCP0); experiment: Residual activity of CSNK1G1 (unknown origin) at 10 nM using Ulight-MBP as substrate and ATP as co-substrate incubated for 40 mins and measured after 1 hr by TR-FRET assay relative to control; conditions: time 100.0 min
A2780 [13] = experiment: Antitumor activity against human A2780 cells xenografted in Balb/c mouse assessed as inhibition of tumor growth at 4.75 mg/kg, po bid for 14 days relative to control; format: functional; conditions: 336 h, time 14 day, read-out: TGI
hERG (KCNH2) = hERG (KCNH2) (Homo sapiens, UniProt Q12809); experiment: Inhibition of hERG at 10 uM by patch clamp method relative to control; format: toxicity
[14] = Toxicity in Balb/c nude mouse xenografted with human A2780 cells assessed as decrease in body weight at 75 mg/kg, po bid for 14 days relative to control; format: organism-based; design: scale not given: the % may be the effect or the level left; conditions: in vivo, 336 h, time 14 day
C-33-A [15] = experiment: cells; conditions: Homo sapiens
RS4-11 [16] = experiment: Antitumor activity against human RS4-11 cells xenografted in BALB/c nu/nu mouse assessed as reduction in DYRK1A autophosphorylation of S520 residue at 25 mg/kg, po measured after 2 hrs by western blotting analysis relative to control; format: functional; design: scale not given: the % may be the effect or the level left
RS4-11 [17] = experiment: Antitumor activity against human RS4-11 cells xenografted in BALB/c nu/nu mouse assessed as reduction in DYRK1A autophosphorylation of S520 residue at 25 mg/kg, po measured after 6 hrs by western blotting analysis relative to control; format: functional; design: scale not given: the % may be the effect or the level left
A2780 [18] = experiment: Antitumor activity against human A2780 cells xenografted in BALB/c nu/nu mouse assessed as reduction in DYRK1A autophosphorylation of S520 residue at 9.375 mg/kg, po measured after 2 hrs by western blotting analysis relative to control; format: functional; design: scale not given: the % may be the effect or the level left
[19] = biological target: Dual specificity protein kinase CLK1 (Homo sapiens) (UniProt P49759); experiment: Residual activity of CLK1 (unknown origin) at 10 nM using Ulight-MBP as substrate and ATP as co-substrate incubated for 40 mins and measured after 1 hr by TR-FRET assay relative to control; conditions: time 100.0 min
[20] = biological target: Dual specificity protein kinase CLK4 (Homo sapiens) (UniProt Q9HAZ1); experiment: Residual activity of CLK4 (unknown origin) at 10 nM using Ulight-MBP as substrate and ATP as co-substrate incubated for 40 mins and measured after 1 hr by TR-FRET assay relative to control; conditions: time 100.0 min
A2780 [21] = experiment: Antitumor activity against human A2780 cells xenografted in BALB/c nu/nu mouse assessed as reduction in DYRK1A autophosphorylation of S520 residue at 18.75 mg/kg, po measured after 6 hrs by western blotting analysis relative to control; format: functional; design: scale not given: the % may be the effect or the level left
A2780 [22] = experiment: Antitumour activity against human A2780 cells xenografted in BALB/c nu/nu mouse assessed as reduction in DYRK1A autophosphorylation of S520 residue at 9.375 mg/kg, po measured after 6 hrs by western blotting analysis relative to control; format: functional; design: scale not given: the % may be the effect or the level left
C-33-A [23] = experiment: cells; conditions: Homo sapiens, 120 h
[24] = Plasma clearance in BALB/c nu/nu mouse at 3 mg/kg, po; format: ADME, organism-based
[25] = biological target: Ribosomal protein S6 kinase alpha-4 (Homo sapiens) (UniProt O75676); experiment: Residual activity of RPS6KA4 (unknown origin) at 10 nM using Ulight-MBP as substrate and ATP as co-substrate incubated for 40 mins and measured after 1 hr by TR-FRET assay relative to control; conditions: time 100.0 min
SK-N-MC [26] = experiment: cells; conditions: Homo sapiens
[27] = biological target: Homeodomain-interacting protein kinase 1 (Homo sapiens) (UniProt Q86Z02); experiment: Residual activity of HIPK1 (unknown origin) at 10 nM using Ulight-MBP as substrate and ATP as co-substrate incubated for 40 mins and measured after 1 hr by TR-FRET assay relative to control; conditions: time 100.0 min
A2780 [28] = experiment: Antitumor activity against human A2780 cells xenografted in BALB/c nu/nu mouse assessed as reduction in DYRK1A autophosphorylation of S520 residue at 37.5 mg/kg, po measured after 2 hrs by western blotting analysis relative to control; format: functional; design: scale not given: the % may be the effect or the level left

Dual specificity protein kinase CLK4 (Homo sapiens), sequence (Q9HAZ1 whole entry, looked up): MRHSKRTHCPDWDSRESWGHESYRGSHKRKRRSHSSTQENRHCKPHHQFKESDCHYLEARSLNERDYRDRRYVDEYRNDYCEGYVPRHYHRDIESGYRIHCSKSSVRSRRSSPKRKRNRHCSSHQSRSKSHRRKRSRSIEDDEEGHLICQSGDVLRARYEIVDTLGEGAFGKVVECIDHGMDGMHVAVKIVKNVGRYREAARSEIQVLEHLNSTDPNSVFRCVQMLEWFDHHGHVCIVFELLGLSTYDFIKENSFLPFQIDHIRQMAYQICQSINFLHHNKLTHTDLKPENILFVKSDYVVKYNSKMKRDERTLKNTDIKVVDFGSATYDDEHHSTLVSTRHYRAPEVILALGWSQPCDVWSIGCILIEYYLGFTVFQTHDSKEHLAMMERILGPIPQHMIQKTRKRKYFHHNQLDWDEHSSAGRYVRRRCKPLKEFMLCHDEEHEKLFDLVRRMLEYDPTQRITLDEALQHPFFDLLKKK
Homeodomain-interacting protein kinase 1 (Homo sapiens), sequence (Q86Z02 whole entry, looked up): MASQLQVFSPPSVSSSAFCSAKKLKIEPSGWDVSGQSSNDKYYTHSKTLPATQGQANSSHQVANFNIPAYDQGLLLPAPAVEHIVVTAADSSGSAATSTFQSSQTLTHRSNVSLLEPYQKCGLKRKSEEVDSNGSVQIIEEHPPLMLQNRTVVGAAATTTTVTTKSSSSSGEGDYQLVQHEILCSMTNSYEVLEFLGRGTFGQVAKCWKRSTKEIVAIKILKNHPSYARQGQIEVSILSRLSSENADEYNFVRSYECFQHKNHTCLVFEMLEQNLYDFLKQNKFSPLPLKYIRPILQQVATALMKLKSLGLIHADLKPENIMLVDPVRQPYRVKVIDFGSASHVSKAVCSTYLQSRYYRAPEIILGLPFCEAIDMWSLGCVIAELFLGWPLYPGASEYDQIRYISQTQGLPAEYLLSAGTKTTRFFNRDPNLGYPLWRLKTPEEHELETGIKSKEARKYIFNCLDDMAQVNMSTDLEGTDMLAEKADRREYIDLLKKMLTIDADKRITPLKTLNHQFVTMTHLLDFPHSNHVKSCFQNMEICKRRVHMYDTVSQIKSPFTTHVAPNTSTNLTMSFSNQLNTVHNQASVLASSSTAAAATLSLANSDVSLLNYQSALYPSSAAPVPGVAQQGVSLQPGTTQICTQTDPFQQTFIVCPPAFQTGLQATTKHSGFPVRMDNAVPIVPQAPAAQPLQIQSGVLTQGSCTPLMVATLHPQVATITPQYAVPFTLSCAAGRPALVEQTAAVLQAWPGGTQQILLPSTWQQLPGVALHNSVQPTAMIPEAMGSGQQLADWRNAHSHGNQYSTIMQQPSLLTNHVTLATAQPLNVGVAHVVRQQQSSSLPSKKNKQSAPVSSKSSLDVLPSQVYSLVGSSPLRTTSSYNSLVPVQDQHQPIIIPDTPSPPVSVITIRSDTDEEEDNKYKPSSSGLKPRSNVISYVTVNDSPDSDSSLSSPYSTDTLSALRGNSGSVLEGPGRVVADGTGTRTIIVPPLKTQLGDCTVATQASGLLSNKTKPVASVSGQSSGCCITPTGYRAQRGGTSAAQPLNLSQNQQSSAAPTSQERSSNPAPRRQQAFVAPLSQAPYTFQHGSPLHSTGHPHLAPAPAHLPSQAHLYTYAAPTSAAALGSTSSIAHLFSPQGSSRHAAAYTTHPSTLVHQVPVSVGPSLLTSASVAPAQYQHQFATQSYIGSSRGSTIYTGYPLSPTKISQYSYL
Dual specificity tyrosine-phosphorylation-regulated kinase 1B (Homo sapiens), sequence (Q9Y463 whole entry, looked up): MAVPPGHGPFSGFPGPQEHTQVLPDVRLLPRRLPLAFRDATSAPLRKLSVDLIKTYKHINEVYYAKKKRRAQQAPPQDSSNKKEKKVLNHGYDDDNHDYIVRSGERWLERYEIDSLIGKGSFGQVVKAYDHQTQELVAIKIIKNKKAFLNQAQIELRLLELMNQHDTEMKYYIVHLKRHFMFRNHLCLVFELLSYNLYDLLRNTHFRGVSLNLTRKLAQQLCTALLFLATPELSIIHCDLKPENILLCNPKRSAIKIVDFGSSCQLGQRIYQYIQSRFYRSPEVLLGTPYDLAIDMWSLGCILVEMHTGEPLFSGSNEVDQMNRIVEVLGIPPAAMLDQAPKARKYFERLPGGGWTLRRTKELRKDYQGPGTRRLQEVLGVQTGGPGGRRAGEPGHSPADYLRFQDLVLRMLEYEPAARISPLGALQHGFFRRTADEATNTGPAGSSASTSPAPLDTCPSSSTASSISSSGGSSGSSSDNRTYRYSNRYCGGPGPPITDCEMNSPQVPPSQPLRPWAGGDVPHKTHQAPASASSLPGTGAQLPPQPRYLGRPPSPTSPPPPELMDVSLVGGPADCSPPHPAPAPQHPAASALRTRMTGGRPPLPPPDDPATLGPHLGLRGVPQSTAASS
Casein kinase I isoform gamma-1 (Homo sapiens), sequence (Q9HCP0 whole entry, looked up, canonical isoform): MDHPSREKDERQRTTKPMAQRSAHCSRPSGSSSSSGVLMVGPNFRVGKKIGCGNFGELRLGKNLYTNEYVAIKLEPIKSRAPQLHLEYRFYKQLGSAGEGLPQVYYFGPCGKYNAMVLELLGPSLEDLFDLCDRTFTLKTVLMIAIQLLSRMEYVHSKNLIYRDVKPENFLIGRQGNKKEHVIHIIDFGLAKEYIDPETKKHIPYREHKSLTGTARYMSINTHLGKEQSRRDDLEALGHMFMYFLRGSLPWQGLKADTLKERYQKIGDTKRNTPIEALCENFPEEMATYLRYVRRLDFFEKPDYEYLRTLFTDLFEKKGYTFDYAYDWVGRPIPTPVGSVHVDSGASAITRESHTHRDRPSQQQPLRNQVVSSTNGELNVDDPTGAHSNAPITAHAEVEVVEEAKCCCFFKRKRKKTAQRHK
hERG (KCNH2), sequence (Q12809 whole entry): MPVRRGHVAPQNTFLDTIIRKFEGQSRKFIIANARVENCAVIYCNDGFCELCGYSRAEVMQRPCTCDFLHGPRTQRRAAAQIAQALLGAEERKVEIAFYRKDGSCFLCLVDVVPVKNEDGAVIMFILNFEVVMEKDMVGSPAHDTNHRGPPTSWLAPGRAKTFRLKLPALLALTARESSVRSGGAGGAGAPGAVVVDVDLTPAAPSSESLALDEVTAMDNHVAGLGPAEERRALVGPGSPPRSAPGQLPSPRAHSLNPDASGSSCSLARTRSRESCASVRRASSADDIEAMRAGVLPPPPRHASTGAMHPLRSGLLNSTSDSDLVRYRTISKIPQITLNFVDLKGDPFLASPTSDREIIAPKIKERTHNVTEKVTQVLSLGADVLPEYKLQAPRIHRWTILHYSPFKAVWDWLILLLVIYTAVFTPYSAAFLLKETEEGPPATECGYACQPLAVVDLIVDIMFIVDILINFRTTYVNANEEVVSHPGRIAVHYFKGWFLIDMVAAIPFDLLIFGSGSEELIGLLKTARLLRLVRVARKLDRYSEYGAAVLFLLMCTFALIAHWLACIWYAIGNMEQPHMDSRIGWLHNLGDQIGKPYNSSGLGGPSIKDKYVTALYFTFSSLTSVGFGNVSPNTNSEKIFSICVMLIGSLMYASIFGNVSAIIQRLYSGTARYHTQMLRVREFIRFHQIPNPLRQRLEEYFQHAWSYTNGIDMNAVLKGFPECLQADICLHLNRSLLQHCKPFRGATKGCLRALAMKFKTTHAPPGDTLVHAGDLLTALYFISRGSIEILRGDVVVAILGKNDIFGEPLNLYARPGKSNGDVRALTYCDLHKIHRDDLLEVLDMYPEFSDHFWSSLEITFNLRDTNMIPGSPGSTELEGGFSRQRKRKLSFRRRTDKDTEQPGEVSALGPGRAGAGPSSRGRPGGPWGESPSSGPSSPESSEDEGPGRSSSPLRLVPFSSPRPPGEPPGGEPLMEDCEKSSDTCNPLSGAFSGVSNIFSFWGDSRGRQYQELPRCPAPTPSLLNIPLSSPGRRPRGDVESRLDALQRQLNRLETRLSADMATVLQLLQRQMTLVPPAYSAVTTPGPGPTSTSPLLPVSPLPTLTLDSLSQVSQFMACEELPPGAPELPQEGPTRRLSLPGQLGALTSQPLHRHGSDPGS
Dual specificity protein kinase CLK1 (Homo sapiens), sequence (P49759 whole entry, looked up): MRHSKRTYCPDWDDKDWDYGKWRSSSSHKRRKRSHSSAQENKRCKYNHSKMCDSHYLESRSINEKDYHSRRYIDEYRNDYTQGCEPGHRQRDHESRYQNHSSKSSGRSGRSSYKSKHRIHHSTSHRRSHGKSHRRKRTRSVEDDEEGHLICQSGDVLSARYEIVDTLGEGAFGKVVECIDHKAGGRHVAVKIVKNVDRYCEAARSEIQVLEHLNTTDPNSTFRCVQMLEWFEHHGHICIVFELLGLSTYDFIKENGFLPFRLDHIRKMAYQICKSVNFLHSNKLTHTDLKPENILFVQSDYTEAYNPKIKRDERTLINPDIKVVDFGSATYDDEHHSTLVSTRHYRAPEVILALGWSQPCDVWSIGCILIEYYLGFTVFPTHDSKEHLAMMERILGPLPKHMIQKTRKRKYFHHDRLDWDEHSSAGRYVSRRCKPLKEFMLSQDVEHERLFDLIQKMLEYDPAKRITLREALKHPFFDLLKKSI

SMILES: Cc1nc2ccc(-c3cc(N)nc(N)c3)nc2n1C1CC1
- Activity (A2780 [1]): 82%
- Activity (RS4-11 [2]): 25%
- Activity [3]: 9.7%
- Activity [4]: 8.7%
- residual activity [5]: 20%
- Activity (RS4-11 [6]): 84%
- Activity [7]: 1.5%
- T/C (A2780 [8]): 63%
- IC50 (SK-N-MC [9]): 958 nM
- Activity (RS4-11 [10]): 38%
- T/C (A2780 [11]): 91%
- residual activity [12]: 69%
- inhibition in vivo at 4.75 mg/kg (A2780 [13]): 28%
- inhibition at 10 µM (hERG (KCNH2)): 52%
- Activity [14]: 16.3%
- IC50 (C-33-A [15]): 157 nM
- Activity (RS4-11 [16]): 87%
- Activity (RS4-11 [17]): 91%
- Activity (A2780 [18]): 60%
- residual activity [19]: 48%
- residual activity [20]: 52%
- Activity (A2780 [21]): 80%
- Activity (A2780 [22]): 10%
- IC50 (C-33-A [23]): 1020 nM
- CL/F [24]: 226 mL/min/kg
- residual activity [25]: 61%
- IC50 (SK-N-MC [26]): 77 nM
- residual activity [27]: 72%
- Activity (A2780 [28]): 82%
